# Reference: patent publication US20230323293A1, “EXPANSION CULTURE MEDIUM AND CULTURE METHOD FOR NEURAL CELLS” (INSTITUTE OF ZOOLOGY, CHINESE ACADEMY OF SCIENCES, priority 2020, published 2023)
# Experiments:
# microglial progenitors = assay: Proliferation of microglial progenitors; format: cell-based; settings: 10 μM
# Description: • (1) On the 0th day, ESCs were digested with Accutase into single cells, counted and inoculated into a V-bottom 96-well plate at a concentration of 10,000/well, and cultured statically. • (2) From the 0th to 4th day, the medium was microglial induction medium: DMEM/F12, 20% KOSR, 1× Glutamax, 1×NEAA, 50 ng/ml BMP4, 50 ng/ml VEGF, 20 ng/ml SCF, 10 μM Y-27632. • (3) On the 4th day, the suspended EBs were subjected to adherent culture in a 6-well plate, the culture medium was changed on the 4th day and then the static culture was carried out until the 11th day. From the 4th to 11th day, the culture medium was microglial differentiation medium: X-VIVO15, 1× Glutamax, 25 ng/ml IL-34, 50 ng/ml M-CSF. At this stage, Blebbistatin was added at a concentration of 10 μM. • (4) On the 11th day, the single cells suspended in the medium were collected and counted, and the EBs were continued to be cultured with the microglial differentiation medium, and the suspended cells in the supernatant were collected every 7 days for a total of 3 collections. • (5) Maturation of microglial cells: The supernatant was discarded after centrifugation, the cells were resuspended in a microglial maturation medium and inoculated on Matrigel pre-coated culture plates. The microglial cells matured after being continuously cultured for 14 days. […]
# NSCs = assay: Proliferation of neural stem cells; format: cell-based, human; settings: 10 μM, P4 to P6
# Description: The differentiation method was referred to Tchieu et al., A Modular Platform for Differentiation of Human PSCs into All Major Ectodermal Lineages. 2017, Cell Stem Cell 21, 399-410.
# NSCs were cultured with expansion medium after adherence, DMEM/F12 (1×, Gibco) supplemented with […] human (EGF) (R&D), […] (bFGF) (R&D), 5 μg/ml Heparin (Sigma), 2% B27 (Gibco), 1× GlutaMAX, and 10 μM Blebbistatin was added to the experimental group. Half of the culture medium was changed every day.
# GABA progenitor cells = assay: Proliferation of GABA progenitor cells; format: cell-based, human; settings: 10 μM, P4 to P5, versus control group
# Description: (§1) (1) hESCs were cultured and differentiation was conducted until about 80% confluence. On the 0th day, the cells were dissociated with Dispase (1 U/mL), and the bottom cell mass was harvested and spread on an ultra-low adsorption 10 cm culture dish.
# (2) From the 1st day, the neural induction was started by using NIM medium supplemented with 100 nM LDN193189, 10 μM SB431542, and 2 μM XAV939. […]
# astrocytes = assay: Expansion experiment of astrocytes; format: cell-based, human; settings: 10 μM, P2 to P6, versus control group
# Description: as §1, with “plated in” for “spread on”, “dish. • (2) From the 1st day, the neural induction was started by replacing with NIM medium supplemented with neural induction molecules 100 nM LDN193189 and 10 μM SB431542. […]” for “dish.”
smiles,measurement,setting,value
"Cc1ccc2c(c1)C(=O)[C@]1(O)CCN(c3ccccc3)C1=N2 [Blebbistatin, (S)-(−)-Blebbistatin]",proliferation of microglial progenitors and differentiation efficiency,microglial progenitors,could promote the proliferation of microglial progenitors and improve the differentiation efficiency
same,number of suspension cells collected,"microglial progenitors; first two collections, versus control group",increased significantly
same,expansion of NSCs,NSCs,significantly promoted the expansion of NSCs
same,expansion ability of GABA progenitor cells,GABA progenitor cells,significantly improved
same,expansion ability of astrocytes,astrocytes,significantly improved
